Results: paper PMC7340254, “Structure-based screening of binding affinities via small-angle X-ray scattering” (IUCrJ, 2020)

Experiments:
[1] = target: T1, glutamine-binding protein (GlnBP) (Escherichia coli, UniProt P0AEQ3); experiment: Isothermal titration calorimetry (ITC, this work); design: species or system E. coli; conditions: 20°C, read-out: K D (ITC, this work)
T1 construct: Uniprot entry P0AEQ3, residues 23–248; made in house; host or cells: E. coli BL21(DE3)
Method: (§1) All ITC measurements were conducted on a Malvern MicroCal PEAQ ITC at 20°C with stirring at 200 rev min^−1 using the same buffer as in SAXS measurements. The cell was initially loaded with 200 µl of 20 µM protein with an initial ligand concentration of 200 µM in the syringe to quantify His:HisBP binding. This was further adjusted in subsequent runs to resolve weaker interactions as necessary.

[2] = target: T1, glutamine-binding protein (GlnBP); experiment: SAXS-based ligand titration; design: species or system E. coli; conditions: ESRF, 3.0 × 10^12 photons, GlnBP 80 µM; 'no change' = no significant changes in scattering curves
Text: Their preliminary results have been excluded from this report.

HisBP = target: HisBP; design: method as in Paul et al. (2016); conditions: ref Paul et al. (2016), read-out: K D (ITC, literature); cited from earlier work
GlnBP = target: GlnBP; design: method as in Clifton & Jackson (2016); conditions: ref Clifton & Jackson (2016), read-out: K D (ITC, literature); cited from earlier work
[3] = target: T2, histidine-binding protein (HisBP) (Escherichia coli, UniProt P0AEU0); experiment: biochemical
Method: as §1

[4] = target: T2, histidine-binding protein (HisBP); experiment: biochemical; remark: listed apart in the source
Method: Titrations were conducted at fixed protein concentrations to exclude signal-to-noise factors. An initial mass concentration of 2.0 or 4.0 mg ml^−1 was employed in prospective experiments, then scaled to 2.0, 1.0, 0.5 and 0.25 mg ml^−1 in later concentration-variation studies. […] A total of eight beamline experiments were conducted, using the automated sample changing environments available on site, operated in constant-flow mode: three times at ESRF BM29, three at DESY P12, once at Australian Synchrotron SAXS/WAXS and once at Diamond B21. […] Furthermore, experiments at ESRF BM29 and Diamond B21 were carried out on site, while the DESY P12 experiment was carried out by mail-in. For these measurements, samples were prepared by pipetting ligand–protein mixtures onto 96-well plates prior to transport. As for the Australian Synchrotron measurements, apo–HisBP was lyophilized in its final buffer and reconstituted on site using pure H2O and then mixed with the ligands in 96-well plates.
Buffer-subtracted intensities provided from respective synchrotron pipelines were used as starting points for analysis. […] Thus, an intermediate value of 7.2 nm was fixed for all computations involving D max including V R.
This was used to assist in locating data points affected by sample handling errors or measurement failures, along with detectable aggregation. The ideal minimum angle after removal of parasitic scattering is 0.1–0.15 nm^−1, although a more conservative cutoff was used to collectively eliminate residual aggregation. The maximum usable q was determined by visual inspection of noise. The final ranges used across all HisBP beamline sessions were: 0.2–2.0 nm^−1 at 20 µM and below, 0.25–2.5 nm^−1 at 40 µM, and 0.3–3 nm^−1 above 80 µM. The q-ranges for DEBP and GlnBP were set to 0.1–2.8 nm^−1.
A common scattering reference is created per HisBP concentration and per beamline experiment by averaging apo protein replicates after discarding outliers. This reference is used for both V R and χlin computations.
To fit binding curves against metrics, we consider all titrations conducted per protein concentration per beamline experiment as a single set, after removing data points resulting from aggregation, preparation errors or measurement errors. […] Since the two-state binding curve at constant [R] cannot effectively discriminate between K D values much larger or smaller than [R], fitted K D values are limited to within four orders of magnitude of the receptor concentration (cf. Fig. S1). […] Error bars indicate σ of logK D from the ensemble of replicate predictions. For metrics where uncertainty was not computed (V R and V P), the uncertainty was estimated by single-point removal, where K D was recomputed after removal of each titration point. The σ of the resulting replicates are taken as the σ of logK D. To eliminate cases where the fitting process fails due to ill-constrained parameters, replicates were discarded if the fitted apo–holo differences were >3σ from the mean value of all replicates.

[5] = target: T2, histidine-binding protein (HisBP); experiment: NMR chemical shift perturbation titration; design: Uniprot entry P0AEU0, residues 23–260; His6 tag with TEV cleavage site (N, cleaved yes); made in house; host or cells: E. coli BL21(DE3); species or system E. coli; conditions: HisBP 200 µM, 298 K, chemical shift perturbations; read-out: K D (NMR)
Text: All NMR experiments have been carried out at 298 K on an 800 MHz Bruker Avance III NMR spectrometer equipped with a cryogenic probehead. […] Data were processed with NMRpipe (Delaglio et al., 1995[▸]), analyzed using NMRFAM-Sparky (Lee et al., 2015[▸]) and visualized with Python modules nmrglue and matplotlib (Helmus & Jaroniec, 2013[▸]; Hunter, 2007[▸]).
Backbone assignments of apo- and His-bound HisBP have been derived from BMRB entries 19242 and 19245 (Chu et al., 2013[▸]). The assignment of Arg-bound HisBP is produced by extending the apo-HisBP assignment along titrations, leaving sites in slow exchange unassigned. For affinity computations based on chemical shift perturbations, ^1H and ^15N shifts have been combined to a composite shift δ = [(δH)^2 + (0.2δN)^2]^1/2. The derivation of an overall dissociation constant from chemical shift perturbations follows the work by Williamson (2013[▸]), where the shift in peak position is used to derive free and bound populations without considering peak intensities. The effect of site-specific exchange rates upon peak positions is taken into account (London, 1993[▸]). We discarded residues with either insignificant shifts at saturation (δ < 0.05) or which were in slow exchange such that peak positions alone were no longer informative. […]

T2 sequence (P0AEU0 23-260): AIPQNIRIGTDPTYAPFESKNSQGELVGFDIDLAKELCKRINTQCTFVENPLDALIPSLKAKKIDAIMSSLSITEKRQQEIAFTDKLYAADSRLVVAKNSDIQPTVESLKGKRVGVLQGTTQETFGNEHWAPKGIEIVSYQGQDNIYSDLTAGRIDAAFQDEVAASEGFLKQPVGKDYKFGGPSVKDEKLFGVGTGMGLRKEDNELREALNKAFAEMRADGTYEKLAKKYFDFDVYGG
T1 sequence (P0AEQ3 23-248): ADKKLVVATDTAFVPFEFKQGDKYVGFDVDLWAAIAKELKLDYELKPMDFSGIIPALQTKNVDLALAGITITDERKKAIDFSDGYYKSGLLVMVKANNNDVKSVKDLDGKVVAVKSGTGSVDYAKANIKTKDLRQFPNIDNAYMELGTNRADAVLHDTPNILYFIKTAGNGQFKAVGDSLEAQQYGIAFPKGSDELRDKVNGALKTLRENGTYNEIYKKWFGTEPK

N=C(N)NCCC[C@H](N)C(=O)O [Arg, arginine]
Kd [1]: 78.9 ± 8.6 µM
K D derived from V R titration curves (result in words) [2]: No change
Kd (HisBP): 3000 ± 1000 nM
Kd (GlnBP): 93.8 ± 7.4 µM
Kd [3]: 2060 ± 220 nM
Kd ([4]; K D fitted to SAXS V R titration curves, AustSynch, 20s exposure, […] 10^13 photons, HisBP 19 µM): 2800 ± 310 nM
Kd ([4]; K D fitted to SAXS V R titration curves, AustSynch, 20s exposure, […] 10^13 photons, HisBP 38 µM): 3000 ± 1400 nM
Kd ([4]; K D fitted to SAXS V R titration curves, AustSynch, 20s exposure, […] 10^13 photons, HisBP 76 µM): 5500 ± 1400 nM
Kd ([4]; K D fitted to SAXS V R titration curves, DESY, 4s exposure, […] 10^13 photons, HisBP 20 µM): 33000 ± 4500 nM
Kd ([4]; K D fitted to SAXS V R titration curves, DESY, 4s exposure, […] 10^13 photons, HisBP 40 µM): 74000 ± 19000 nM
Kd ([4]; K D fitted to SAXS V R titration curves, DESY, 4s exposure, […] 10^13 photons, HisBP 80 µM): 5900 ± 600 nM
Kd ([4]; K D fitted to SAXS V R titration curves, Diamond, 40s exposure, […] 10^14 photons, HisBP 10 µM): 370 ± 140 nM
Kd ([4]; K D fitted to SAXS V R titration curves, Diamond, 40s exposure, […] 10^14 photons, HisBP 20 µM): 920 ± 110 nM
Kd ([4]; K D fitted to SAXS V R titration curves, Diamond, 40s exposure, […] 10^14 photons, HisBP 40 µM): 4800 ± 480 nM
Kd ([4]; K D fitted to SAXS V R titration curves, Diamond, 40s exposure, […] 10^14 photons, HisBP 80 µM): 7300 ± 1900 nM
Kd ([4]; K D fitted to SAXS V R titration curves, ESRF, 5s exposure, 3.0 × 10^12 photons, HisBP 38 µM): 2000 ± 1900 nM
Kd ([4]; K D fitted to SAXS V R titration curves, ESRF, 5s exposure, 3.0 × 10^12 photons, HisBP 160 µM): 710 ± 1000 nM
Kd ([4]; KD fitted to SAXS Rg curves, AustSynch, 20s exposure, HisBP 19 µM): 7700 ± 2000 nM
Kd ([4]; KD fitted to SAXS Rg curves, AustSynch, 20s exposure, HisBP 38 µM): 52 ± 40 nM
Kd ([4]; KD fitted to SAXS Rg curves, AustSynch, 20s exposure, HisBP 76 µM): 1600 nM
Kd ([4]; KD fitted to SAXS Rg curves, DESY, 4s exposure, HisBP 20 µM): 15000 ± 6800 nM
Kd ([4]; KD fitted to SAXS Rg curves, DESY, 4s exposure, HisBP 40 µM): 150000 ± 52000 nM
Kd ([4]; KD fitted to SAXS Rg curves, DESY, 4s exposure, HisBP 80 µM): 27000 ± 7100 nM
Kd ([4]; KD fitted to SAXS Rg curves, Diamond, 40s exposure, HisBP 20 µM): 810 nM
Kd ([4]; KD fitted to SAXS Rg curves, Diamond, 40s exposure, HisBP 40 µM): 1500 ± 4400 nM
Kd ([4]; KD fitted to SAXS Rg curves, Diamond, 40s exposure, HisBP 80 µM): 1100 ± 2500 nM
Kd ([4]; KD fitted to SAXS Rg curves, ESRF, 5s exposure, HisBP 38 µM): 2600 nM
Kd ([4]; KD fitted to SAXS Rg curves, ESRF, 5s exposure, HisBP 160 µM): 390 ± 280 nM
Kd ([4]; KD fitted to SAXS Vc curves, AustSynch, 20s exposure, HisBP 19 µM): 2100 ± 6000 nM
Kd ([4]; KD fitted to SAXS Vc curves, AustSynch, 20s exposure, HisBP 38 µM): 3700 ± 6600 nM
Kd ([4]; KD fitted to SAXS Vc curves, AustSynch, 20s exposure, HisBP 76 µM): 2000 nM
Kd ([4]; KD fitted to SAXS Vc curves, DESY, 4s exposure, HisBP 20 µM): 6300 nM
Kd ([4]; KD fitted to SAXS Vc curves, DESY, 4s exposure, HisBP 80 µM): 17 ± 41 nM
Kd ([4]; KD fitted to SAXS Vc curves, Diamond, 40s exposure, HisBP 20 µM): 6300 nM
Kd ([4]; KD fitted to SAXS Vc curves, Diamond, 40s exposure, HisBP 80 µM): 38 nM
Kd ([4]; KD fitted to SAXS Vc curves, ESRF, 5s exposure, HisBP 7.6 µM): 280 ± 720 nM
Kd ([4]; KD fitted to SAXS Vc curves, ESRF, 5s exposure, HisBP 38 µM): 75 nM
Kd ([4]; KD fitted to SAXS Vc curves, ESRF, 5s exposure, HisBP 160 µM): 910 nM
Kd ([4]; KD fitted to SAXS χlin. curves, AustSynch, 20s exposure, HisBP 19 µM): 11000 ± 7600 nM
Kd ([4]; KD fitted to SAXS χlin. curves, AustSynch, 20s exposure, HisBP 38 µM): 10000 ± 2000 nM
Kd ([4]; KD fitted to SAXS χlin. curves, AustSynch, 20s exposure, HisBP 76 µM): 11000 ± 1400 nM
Kd ([4]; KD fitted to SAXS χlin. curves, DESY, 4s exposure, HisBP 20 µM): 4100 ± 2100 nM
Kd ([4]; KD fitted to SAXS χlin. curves, DESY, 4s exposure, HisBP 40 µM): 140000 ± 42000 nM
Kd ([4]; KD fitted to SAXS χlin. curves, DESY, 4s exposure, HisBP 80 µM): 42000 ± 6700 nM
Kd ([4]; KD fitted to SAXS χlin. curves, Diamond, 40s exposure, HisBP 20 µM): 1400 nM
Kd ([4]; KD fitted to SAXS χlin. curves, Diamond, 40s exposure, HisBP 40 µM): 23000 ± 7100 nM
Kd ([4]; KD fitted to SAXS χlin. curves, Diamond, 40s exposure, HisBP 80 µM): 12 ± 20 nM
Kd ([4]; KD fitted to SAXS χlin. curves, ESRF, 5s exposure, HisBP 7.6 µM): 1900 ± 2000 nM
Kd ([4]; KD fitted to SAXS χlin. curves, ESRF, 5s exposure, HisBP 152 µM): 91 nM
Kd [5]: 560 nM
